# Experiments:
# Assay type in all cases: biochemical
# [1] = biological target: human Janus kinase 1 (JAK1), recombinant catalytic domain (Homo sapiens (Human), UniProt P23458); assay: LanthaScreen TR-FRET enzymatic assay, JAK1; conditions: 1 mM ATP, GFP-STAT1 substrate, read-out: Inhibitory Activity IC50 JAK1
# Protocol: (§1) The in vitro inhibition of recombinant human JAKs was determined as follow.
# (§2) Compounds were tested in LANTHASCREEN™ time-resolved fluorescence energy transfer (TR-FRET) enzymatic assays from Invitrogen. The human Janus kinase 1 (JAK1) used in the assay is the recombinant JAK1 catalytic domain (amino acids 866-1154) expressed and purified from insect cells (Invitrogen, Cat. No. PV4774). The human Janus kinase 2 (JAK2) used in the assay is the recombinant JAK2 catalytic domain (amino acids 808-1132) expressed and purified from insect cells (Invitrogen, Cat. No. PV4210). The human Janus kinase 3 (JAK3) used in the assay is the recombinant JAK3 catalytic domain (amino acids 781-1124) expressed and purified from insect cells (Invitrogen, Cat. No. PV3855). The human tyrosine kinase 2 (TYK2) used in the assay is the recombinant TYK2 catalytic domain (amino acids 833-1187) expressed and purified from insect cells (Invitrogen, Cat. No. PV4790). The substrate is a recombinant STAT1 expressed as a fusion with GFP (Green Fluorescent Protein) to act as a physiological substrate (Invitrogen, Cat. No. PV5211).
# (§3) Test compounds were prepared and diluted in DMSO in 3-fold serial dilutions for 10 doses to 100× of the final testing concentrations. The compounds were then further diluted to 4× by the kinase reaction buffer (Invitrogen, Cat. No. PV3189). The enzymatic reaction for compound testing was performed in a white 384-well polypropylene plate (Packard, Cat. No. 6005214) with a total reaction volume of 10 μL containing 440 ng/mL JAK1, 11 ng/mL JAK2, 400 ng/mL JAK3, or 200 ng/mL TYK2, 100 nM substrate, and 1 mM ATP. The assay started with loading 2.5 μL of JAK1, JAK2, JAK3, or TYK2 diluted in the kinase reaction buffer to wells, followed by addition of an equal volume of 4× compounds for 15-min incubation at room temperature for pre-treatment. The enzymatic reaction was initiated by addition of 5 μL of a mixture of the substrate and ATP prepared in the kinase reaction buffer. After one hour reaction, 10 μL mixture of EDTA (final 10 mM) and terbium-labeled anti-pSTAT1 (pTyr701) antibody (final 2 nM) (Invitrogen, Cat. No. PV4844) prepared in TR-FRET antibody dilution buffer (Invitrogen, Cat. No. PV3574) was added to stop the enzymatic reaction and produce TR-FRET signals. After 30 minutes of incubation at room temperature, the plate was read in Tecan Infinite F200 Pro with the following settings: Excitation 340 nm (30)/Emission1 495 nm (10)/Emission2 520 nm (25). The TR-FRET values were dimensionless numbers that were calculated as the ratio of the acceptor ([…]) signal to the donor (Terbium) signal. Percent of inhibition was calculated as (100%−percentage of compound-treated/DMSO vehicle-treated). The dose-response curves were generated and the IC50s were calculated by nonlinear sigmoid curve fitting using GraphPad Prism.
# (§4) In Table 1, A represents a value no greater than 500 nM, B represents a value greater than 500 nM but no greater than 1 μM, C represents a value greater than 1 μM but no greater than 5 μM, and D represents a value greater than 5 μM. In Table 2, A′ represents a ratio of greater than 8, B′ represents a ratio of no greater than 8 but no less than 4, C′ represents a ratio of no greater than 4 but no less than 2, and D′ represents a ratio of no greater than 2. The selectivity is expressed as a ratio of the IC50 values of a compound against two kinases to be compared.
# [2] = biological target: human Janus kinase 2 (JAK2), recombinant catalytic domain (Homo sapiens (Human), UniProt O60674); assay: LanthaScreen TR-FRET enzymatic assay, JAK2; conditions: for IC50: TR-FRET, 1 mM ATP, GFP-STAT1 substrate, read-out: Inhibitory Activity IC50 JAK2; for Selectivity JAK2/JAK1: ratio of IC50 against JAK2 over IC50 against JAK1
# Protocol: as §1, §2, §3, §4
# [3] = biological target: human Janus kinase 3 (JAK3), recombinant catalytic domain (Homo sapiens (Human), UniProt P52333); assay: LanthaScreen TR-FRET enzymatic assay, JAK3; conditions: TR-FRET, 1 mM ATP, GFP-STAT1 substrate; read-out: Inhibitory Activity IC50 JAK3
# Protocol: as §1, §2, §3, §4
# [4] = tested on: human Janus kinase 3 (JAK3), recombinant catalytic domain; assay: LanthaScreen TR-FRET enzymatic assay, JAK3; conditions: ratio of IC50 against JAK3 over IC50 against JAK1
# Protocol: as §1, §2, §3, §4
# [5] = biological target: human tyrosine kinase 2 (TYK2), recombinant catalytic domain (Homo sapiens (Human), UniProt P29597); assay: LanthaScreen TR-FRET enzymatic assay, TYK2; conditions: TR-FRET, 1 mM ATP, GFP-STAT1 substrate; read-out: Inhibitory Activity IC50 TYK2
# Protocol: as §1, §2, §3, §4
# [6] = tested on: human tyrosine kinase 2 (TYK2), recombinant catalytic domain; assay: LanthaScreen TR-FRET enzymatic assay, TYK2; conditions: ratio of IC50 against TYK2 over IC50 against JAK1
# Protocol: as §1, §2, §3, §4
# Sequence of human Janus kinase 3 (JAK3), recombinant catalytic domain (Homo sapiens (Human), UniProt P52333) (P52333 781-1124): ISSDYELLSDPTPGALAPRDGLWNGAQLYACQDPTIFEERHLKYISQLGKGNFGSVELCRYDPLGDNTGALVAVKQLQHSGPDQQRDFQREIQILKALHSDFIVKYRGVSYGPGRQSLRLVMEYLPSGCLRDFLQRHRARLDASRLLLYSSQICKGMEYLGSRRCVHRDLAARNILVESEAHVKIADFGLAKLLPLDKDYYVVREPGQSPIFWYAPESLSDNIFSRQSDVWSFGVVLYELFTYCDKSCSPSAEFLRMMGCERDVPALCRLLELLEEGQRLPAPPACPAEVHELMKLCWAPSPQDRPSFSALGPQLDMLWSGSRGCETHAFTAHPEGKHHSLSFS
# Sequence of human tyrosine kinase 2 (TYK2), recombinant catalytic domain (Homo sapiens (Human), UniProt P29597) (P29597 833-1187): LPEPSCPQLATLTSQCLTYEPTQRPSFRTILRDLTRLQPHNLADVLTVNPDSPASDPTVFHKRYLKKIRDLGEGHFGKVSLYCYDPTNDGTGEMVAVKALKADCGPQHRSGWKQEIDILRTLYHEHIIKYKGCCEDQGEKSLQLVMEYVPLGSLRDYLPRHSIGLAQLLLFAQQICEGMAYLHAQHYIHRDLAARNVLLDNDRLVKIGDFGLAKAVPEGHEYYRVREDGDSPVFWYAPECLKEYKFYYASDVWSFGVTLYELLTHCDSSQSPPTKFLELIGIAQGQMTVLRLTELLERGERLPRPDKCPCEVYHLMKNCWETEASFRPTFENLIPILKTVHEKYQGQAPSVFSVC
# Sequence of human Janus kinase 1 (JAK1), recombinant catalytic domain (P23458 866-1154): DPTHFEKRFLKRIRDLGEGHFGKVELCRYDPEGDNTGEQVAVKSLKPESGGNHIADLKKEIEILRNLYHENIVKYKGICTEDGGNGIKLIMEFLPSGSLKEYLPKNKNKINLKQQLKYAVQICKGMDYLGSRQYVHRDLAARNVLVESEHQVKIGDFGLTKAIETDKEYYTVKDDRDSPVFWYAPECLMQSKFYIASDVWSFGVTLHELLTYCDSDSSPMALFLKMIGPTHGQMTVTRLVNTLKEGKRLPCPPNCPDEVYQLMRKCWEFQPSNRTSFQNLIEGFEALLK
# Sequence of human Janus kinase 2 (JAK2), recombinant catalytic domain (O60674 808-1132): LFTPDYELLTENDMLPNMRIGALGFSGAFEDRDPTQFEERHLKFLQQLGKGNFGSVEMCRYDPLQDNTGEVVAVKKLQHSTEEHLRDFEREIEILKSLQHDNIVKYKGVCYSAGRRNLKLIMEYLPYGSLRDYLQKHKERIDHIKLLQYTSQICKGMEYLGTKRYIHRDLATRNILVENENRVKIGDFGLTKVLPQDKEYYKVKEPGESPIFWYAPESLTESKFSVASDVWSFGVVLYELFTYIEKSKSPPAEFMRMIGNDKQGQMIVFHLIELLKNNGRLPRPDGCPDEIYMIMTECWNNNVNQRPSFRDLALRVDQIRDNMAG
SMILES,IC50 [1] [µM],IC50 [2] [µM],Selectivity JAK2/JAK1 [2],IC50 [3] [µM],Selectivity JAK3/JAK1 [4],IC50 [5] [µM],Selectivity TYK2/JAK1 [6]
O=C(Nc1cn2c(-c3ccc(CN4CC[C@H](O)C4)cc3)cccc2n1)C1CC1 [Compound 8],0.5 to 1,> 5,A′ (A′ represents a ratio of greater than 8),> 5,A′ (A′ represents a ratio of greater than 8),> 5,A′ (A′ represents a ratio of greater than 8)
O=C(Nc1cn2c(-c3ccc(CN4CC[C@@H](O)C4)cc3)cccc2n1)C1CC1 [Compound 9],1 to 5,> 5,A′ (A′ represents a ratio of greater than 8),> 5,A′ (A′ represents a ratio of greater than 8),> 5,A′ (A′ represents a ratio of greater than 8)
CC(C#N)c1ccc(-c2cccc3nc(NC(=O)C4CC4)cn23)cc1 (stereo not shown) [Compound 27],0.5 to 1,> 5,A′ (A′ represents a ratio of greater than 8),> 5,A′ (A′ represents a ratio of greater than 8),> 5,A′ (A′ represents a ratio of greater than 8)
O=C(Nc1cn2c(-c3ccc(CN4CCCCC4)cc3)cccc2n1)C1CC1 [Compound 6],1 to 5,> 5,A′ (A′ represents a ratio of greater than 8),> 5,A′ (A′ represents a ratio of greater than 8),> 5,A′ (A′ represents a ratio of greater than 8)
N#CCc1ccc(-c2cccc3nc(NC(=O)C4CC4)cn23)c(F)c1 [Compound 16],≤ 0.5,> 5,A′ (A′ represents a ratio of greater than 8),> 5,A′ (A′ represents a ratio of greater than 8),> 5,A′ (A′ represents a ratio of greater than 8)
O=C(Nc1cn2c(-c3cccc(CN4CCS(=O)(=O)CC4)c3)cccc2n1)C1CC1 [Compound 29],> 5,> 5,C′ (C′ represents a ratio of no greater than 4 but no less than 2),> 5,A′ (A′ represents a ratio of greater than 8),> 5,C′ (C′ represents a ratio of no greater than 4 but no less than 2)
CC1(C)CN(Cc2ccc(-c3cccc4nc(NC(=O)C5CC5)cn34)cc2)C1 [Compound 25],> 5,> 5,A′ (A′ represents a ratio of greater than 8),> 5,A′ (A′ represents a ratio of greater than 8),> 5,A′ (A′ represents a ratio of greater than 8)
N#CCc1ccccc1NCc1ccc(-c2cccc3nc(NC(=O)C4CC4)cn23)cc1 [Compound 32],≤ 0.5,> 5,A′ (A′ represents a ratio of greater than 8),> 5,A′ (A′ represents a ratio of greater than 8),> 5,A′ (A′ represents a ratio of greater than 8)
COc1ccc(-c2cccc3nc(NC(=O)C4CC4)cn23)cc1 [Compound 10],1 to 5,> 5,A′ (A′ represents a ratio of greater than 8),> 5,A′ (A′ represents a ratio of greater than 8),> 5,A′ (A′ represents a ratio of greater than 8)
N#CCc1ccc(-c2cccc3nc(NC(=O)C4CC4)cn23)cc1 [Compound 11],≤ 0.5,> 5,A′ (A′ represents a ratio of greater than 8),> 5,A′ (A′ represents a ratio of greater than 8),> 5,A′ (A′ represents a ratio of greater than 8)
N#CC1(c2ccc(-c3cccc4nc(NC(=O)C5CC5)cn34)cc2)CC1 [Compound 22],,,A′ (A′ represents a ratio of greater than 8),> 5,,,
Cc1cc(CN2CCS(=O)(=O)CC2)ccc1-c1cccc2nc(NC(=O)C3CC3)cn12 [Compound 12],1 to 5,> 5,A′ (A′ represents a ratio of greater than 8),> 5,A′ (A′ represents a ratio of greater than 8),> 5,A′ (A′ represents a ratio of greater than 8)
Cc1ccc(-c2ccc(CN3CCS(=O)(=O)CC3)cc2)n2cc(NC(=O)C3CC3)nc12 [Compound 35],> 5,> 5,,> 5,,> 5,
"O=C(Nc1cn2c(-c3ccc(C(=O)N4CCS(=O)(=O)CC4)cc3)cccc2n1)C1CC1 [Compound 13, N-(5-(4-(1,1-Dioxo-1-thiomorpholine-4-carbonyl)phenyl)imidazo[1,2-a]pyridin-2-yl)cyclopropane Carboxamide]",0.5 to 1,> 5,A′ (A′ represents a ratio of greater than 8),> 5,A′ (A′ represents a ratio of greater than 8),> 5,A′ (A′ represents a ratio of greater than 8)
N#CC1CCN(Cc2ccc(-c3cccc4nc(NC(=O)C5CC5)cn34)cc2)CC1 [Compound 7],0.5 to 1,> 5,A′ (A′ represents a ratio of greater than 8),> 5,A′ (A′ represents a ratio of greater than 8),> 5,A′ (A′ represents a ratio of greater than 8)
CN1CCN(Cc2ccc(-c3cccc4nc(NC(=O)C5CC5)cn34)cc2)CC1 [Compound 5],> 5,> 5,A′ (A′ represents a ratio of greater than 8),> 5,A′ (A′ represents a ratio of greater than 8),> 5,A′ (A′ represents a ratio of greater than 8)
N#CCc1ccc(-c2cccc3nc(N)cn23)c(F)c1 [Compound 21],> 5,> 5,A′ (A′ represents a ratio of greater than 8),> 5,A′ (A′ represents a ratio of greater than 8),> 5,C′ (C′ represents a ratio of no greater than 4 but no less than 2)
O=C(Nc1cn2c(-c3ccc(CN4CCS(=O)(=O)CC4)cc3)c(Cl)ccc2n1)C1CC1 [Compound 34],> 5,> 5,,> 5,,> 5,

# — patent US10730875B2, “Substituted imidazo[1,2-A]pyridin-2-ylamine compounds, and pharmaceutical compositions and methods of use thereof” (JN Therapeutics, priority 2015, dated 2020)
